From US20110224297A1, “Methods of administering prostratin and structural analogs thereof” (priority 2008, published 2011) come the findings set out here.

Series [1] is described as follows: In vitro metabolism in mouse liver microsomes. The series is classed as in vitro ADME. The source says: In vitro metabolism of prostratin was investigated using mouse, rat, monkey, and human liver microsomes (Gentest). […] Attempts to identify the metabolite by LC/MS/MS were unsuccessful due to the low amounts present in the reaction mixtures (FIG. 1).
For series [2], the system named is resting CD4+ T cells derived from HIV positive patients. Description: Induction of HIV-1 expression in resting CD4+ T cells from HIV positive patients on HAART (p24, co-culture). The series is classed as cell-based, human. As to the method: The ability of prostratin to induce HIV-1 expression in cultures of highly purified resting CD4+ T cells derived from six HIV positive patients on HAART therapy with undetectable plasma viral load (<50 copies/ml) and CD4 cell counts above 350 cells/mm^3 was evaluated. PBMCs were separated using Ficol Hypaque gradient and resting CD4+ T cells were purified using commercially available CD4+ T cell isolation kit (Miltenyi Biotec) Immediately after purification, resting CD4+ T cells were treated for 3 days with two antiretrovirals to which the patient had not previously been exposed. Antiretrovirals were used at concentrations 10 times the 50% inhibitory concentration for wild-type HIV-1 to ensure elimination of any actively replicating virus. Three days after in vitro incubation with antiretrovirals, cells were washed and incubated for 5 h, 24 h, or 48 h with prostratin (50-500 ng/ml), in the absence or presence of 1 mM valproic acid (sodium salt, SIGMA), 10 μg/ml PHA (SIGMA), 50 U IL-2/ml (AIDS depository of reagents, NIH), or in the absence of drugs. At the end of each incubation period, cells were co-cultured with CD8-depleted PBMCs from healthy donors. P24 was measured at days 0, 4, 7, 14, 21, 28, 35 and 42 days.

The subject of series [3] is Escherichia coli tester strain WP2uvrA. The experiment in a line: Escherichia coli/mammalian-microsome reverse mutation assay with confirmatory assay. The series is classed as cell-based. The following applies: 100 to 5000 μg per plate; presence or absence of S9. The source says:
The objective of this study was to evaluate the test article, prostratin, for the ability to induce reverse mutations either in the presence or absence of mammalian microsomal enzymes at 1) the histidine locus in the genome of several strains of Salmonella typhimurium and at 2) the tryptophan locus of Escherichia coli tester strain WP2uvrA.
The doses tested in the mutagenicity assay were selected based on the results of a dose range finding study using tester strains TA100 and WP2uvrA and ten doses of test article ranging from 6.67 to 5000 μg per plate, one plate per dose, both in the presence and absence of S9 mix.
The tester strains used in the mutagenicity assay were Salmonella typhimurium tester strains TA98, TA100, TA1535, and TA1537 and Escherichia coli tester strain WP2uvrA. The assay was conducted with five doses of test article in both the presence and absence of S9 mix along with concurrent vehicle and positive controls using three plates per dose. The doses tested were 100, 333, 1000, 3330, and 5000 μg per plate in both the presence and absence of S9 mix. The results of the initial mutagenicity assay were confirmed in an independent experiment.

The subject of series [4] is latently infected U1 cells. The experiment in a line: HIV expression (reverse transcriptase activity in supernatant) in latently infected U1 cells. The series is classed as cell-based. As to the method:
The effect of prostratin on virus replication was assessed in latently infected ACH-2 and U1 cells by measuring the accumulation of reverse transcriptase activity in the supernatant of stimulated cells (Gustafson et al., 1992, J Med Chem 35(11): 1978-86).
Briefly, 4×10^4 cells in 100 μl fresh medium were mixed with another 100 μl of medium with or without prostratin or PMA in a 96-well microtiter plate. Plates were incubated for 24-72 h at 37° C. Following incubation, supernatants were harvested, centrifuged (to remove any residual cells) and tested for reverse transcriptase activity as previously described (Gustafson et al., 1992, J Med Chem 35(11): 1978-86).
In these experiments, two concentrations of cells were tested (40,000 and 100,000 cells/well). It is noteworthy that the basal levels of reverse transcriptase activities were much higher in ACH-2 cells than in U1 cells.

The structures appear in SMILES notation.

Regarding `CC(=O)O[C@@]12C[C@@H](C)[C@@]3(O)[C@@H](C=C(CO)C[C@]4(O)C(=O)C(C)=C[C@@H]34)[C@@H]1C2(C)C` [prostratin, 12-deoxyphorbol 13-acetate], the “metabolism (time-dependent loss of parent compound)” value in series [1] is recorded as “greatest”. Moreover, the “HIV-1 expression in resting T cells” value in series [2] (50 ng/ml) is reported as “HIV-1 activation events, although with lower frequency”. Besides, in series [2] (24 h with 150 ng/ml), the “time of co-culture with CD8-depleted PBMC after which robust HIV replication was observed” value is reported as 2-4 weeks. The “HIV-1 expression in resting T cells” value in series [2] (ex-vivo treatment for 24 h with 150 ng/ml) was “efficient activation of the latent reservoir”. For the same compound, in series [3], the “mean number of revertants per plate” value is listed as “did not cause a positive increase”. Further, in series [4], the “exposure time needed to observe acceptable reverse transcriptase activity” value was “at least 48 h” and the “lowest dose to get a reliable increase in reverse transcriptase activity” value came out at 50 ng/mL. Also, in series [4] (none after 1 h and 4 h), the “short incubation (pulsed stimulation) time leading to detectable reverse transcriptase activity” value turned out to be 6 h.
